Assay results published in patent US20090158447A1, “TLR ligand and IL-1 Response-Injured Animal Model” (priority 2004, published 2009).

T1: IκB-ζ (mouse, UniProt Q9EST8 1-728, limits assumed)
T1 construct: also called MAIL; INAP
T1 sequence (looked up): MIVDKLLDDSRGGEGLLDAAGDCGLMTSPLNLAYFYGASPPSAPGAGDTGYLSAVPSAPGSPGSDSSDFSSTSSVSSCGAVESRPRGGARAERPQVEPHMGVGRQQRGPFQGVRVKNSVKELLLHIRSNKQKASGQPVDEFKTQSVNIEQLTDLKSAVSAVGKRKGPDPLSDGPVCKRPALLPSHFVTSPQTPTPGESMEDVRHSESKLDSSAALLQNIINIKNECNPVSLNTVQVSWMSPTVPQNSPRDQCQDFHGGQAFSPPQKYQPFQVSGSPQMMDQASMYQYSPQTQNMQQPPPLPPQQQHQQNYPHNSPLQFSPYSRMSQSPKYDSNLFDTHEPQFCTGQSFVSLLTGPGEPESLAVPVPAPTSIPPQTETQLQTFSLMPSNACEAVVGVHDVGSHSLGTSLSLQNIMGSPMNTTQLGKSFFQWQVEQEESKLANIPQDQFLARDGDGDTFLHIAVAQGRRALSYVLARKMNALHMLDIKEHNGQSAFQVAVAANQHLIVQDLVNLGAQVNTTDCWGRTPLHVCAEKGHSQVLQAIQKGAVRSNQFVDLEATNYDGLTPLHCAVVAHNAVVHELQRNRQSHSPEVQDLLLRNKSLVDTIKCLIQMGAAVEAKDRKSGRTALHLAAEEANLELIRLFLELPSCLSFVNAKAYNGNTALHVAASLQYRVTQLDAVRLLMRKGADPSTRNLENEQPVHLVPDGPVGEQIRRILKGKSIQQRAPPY


Experiments:
[1] = tested on: peritoneal macrophages or lung-derived normal cells; assay: Northern blot analysis of IκB-ζ, Bcl-3 and IκB-α expression on TLR/IL-1R stimulation; assay type: cell-based, mouse; conditions: stimulation for 2 hours, FIG. 1a
Method: Peritoneal macrophages and lung primary cells were stimulated with 100 ng ml^−1 BLP, 10 μg ml^−1 PGN, 30 ng ml^−1 MALP-2, 100 nM R-848, 3 μM CpG DNA, 10 ng ml^−1 IL-1β, 10 μg ml^−1 LPS, 100 ng ml^−1 flagellin, and 10 ng ml^−1 TNF-α for 2 hours. Total RNA (10 μg) was extracted and subjected to Northern blot analysis for investigating the expression of IκB-ζ, Bcl-3, IκB-α, and β-actin. b. MEFs from wild-type and MyD88-deficient mice were stimulated with 10 ng ml^−1 IL-1β and 10 μg ml^−1 LPS for the indicated periods. Total RNA (10 μg) was extracted and subjected to Northern blot analysis for investigating the expression of IκB-ζ, Cox-2, IP-10, and β-actin.
Whether IκB-ζ would be induced in response to other TLR ligands was examined based on the fact that stimulation with IL-1 or LPS induces IκB-ζ in macrophage cell lines and fibroblasts, and that IL-1R and the receptor for LPS, TLR4, share the intracellular signaling pathways. […] On the other hand, other IκB family members, IκB-α and Bcl-3, were induced in response to TNF-αas well as a TLR ligand and IL-1. Taken together, unlike IκB-α and Bcl-3, the IκB-ζ induction is specifically detected on the TLR/IL-1R stimulation.

[2] = target: T1, IκB-ζ; assay: co-immunoprecipitation from peritoneal macrophage lysates, immunoblot with α-IκB-ζ
Source text: RAW 264.7 cells were transiently transfected with luciferase reporter constructs of either mouse IL-6 promoter or ELAM1 promoter together with either a control or the IκB-ζ expression plasmid. Luciferase activities were expressed as fold-increase over the background shown by lysates prepared from untransfected cells. Data are representative of three separate experiments. In all three experiments, cells were stimulated with the indicated concentrations of LPS. b. A certain amount of IκB-ζ expression vector was transiently introduced into untreated RAW 264.7 cells with the indicated amount of IL-6 reporter plasmid. Data are representative of three independent experiments. c. Reporter constructs of either a wild-type or mutant IL-6 promoter were transiently introduced into P19 embryonic canrinoma cells together with either a control or an IκB-ζ expression plasmid. Luciferase activities were normalized in each case of reporter constructs by dividing the increase rate of IκB-ζ-expressed cells over the background shown by lysates by that of mock-expressed cells. d. Chromatin from untreated (−) or LPS-treated (+) (1 μg ml⁻¹ for 3 hours) RAW 264.7 cells were used for ChIp with the indicated antibodies. Precipitated DNA for the IL-6 κB site (left), 3′ region of IL-6 gene (center), or ELAM1 promoter (right) was measured by PCR (ChIP). Data are representative of two independent experiments. e. Unstimulated or LPS-stimulated (10 ng ml⁻¹) peritoneal macrophages were immunoprecepitated with the indicated antibodies. The immunoprecipitated lysates were subsequently immunoblotted with α-IκB-ζ.
Peritoneal macrophages and MEFs were stimulated with the indicated ligands for the indicated periods. The cells were then lysed in a lysis buffer containing 1.0% Nonidet-P40, 150 mM NaCl, 20 mM Tris-Cl (pH 7.5), 5 mM EDTA and protein inhibitor (Roche). The cell lysates were dissolved by SDS-PAGE and transferred on a PVDF membrances. For immunoprecipitation, cell lysates were precleared with Protein G-Sepharose™ (Amersham Pharmacia Biotech) for 2 h and then incubated with Protein G-Sepharose™ containing 1.0 μg of the indicated antibodies for 12 h with stirring at 4° C. The immunoprecipitants were washed four times with lysis buffer, eluted by boiling with Laemnli sample buffer, and subjected to Western blotting using α-IκB-ζ, as described above.

Molecule | IκB-ζ mRNA induction [1] | Bcl-3 induction [1] | IκB-α induction [1] | binding result [2]
flagellin | strongly induced |  |  | 
IL-1: Interleukin-1; recombinant IL-1β obtained from Genzyme | strongly induced | induced | induced | 
MALP-2 | strongly induced |  |  | 
TNF-α | no induction was observed | induced | induced | 
CCOCc1nc2c(N)nc3ccccc3c2n1CC(C)(C)O [R848] | strongly induced |  |  | 
peptidoglycan [PGN] | strongly induced |  |  | 
RelB (other, mouse, UniProt Q04863 1-558, looked up) MPSRRAARESAPELGALGSSDLSSLSLTVSRTTDELEIIDEYIKENGFGLDGTQLSEMPRLVPRGPASLSSVTLGPAAPPPPATPSWSCTLGRLVSPGPCPRPYLVITEQPKQRGMRFRYECEGRSAGSILGESSTEASKTLPAIELRDCGGLREVEVTACLVWKDWPHRVHPHSLVGKDCTDGVCRVRLRPHVSPRHSFNNLGIQCVRKKEIEAAIERKIQLGIDPYNAGSLKNHQEVDMNVVRICFQASYRDQQGHLHRMDPILSEPVYDKKSTNTSELRICRINKESGPCTGGEELYLLCDKVQKEDISVVFSTASWEGRADFSQADVHRQIAIVFKTPPYEDLEISEPVTVNVFLQRLTDGVCSEPLPFTYLPRDHDSYGVDKKRKRGLPDVLGELSSSDPHGIESKRRKKKPVFLDHFLPGHSSGLFLPPSALQPADSDFFPASISLPGLEPPGGPDLLDDGFAYDPSAPTLFTMLDLLPPAPPLASAVVGSGGAGATVVESSGPEPLSLDSFAAPGPGDVGTASLVGSNMFPNQYREAAFGGGLLSPGPEAT |  |  |  | no binding
RelA (other, mouse, UniProt Q04207 1-549, looked up, Immunoprecipitated with anti-RelA (Santa Cruz); also called NF-κB RelA) MDDLFPLIFPSEPAQASGPYVEIIEQPKQRGMRFRYKCEGRSAGSIPGERSTDTTKTHPTIKINGYTGPGTVRISLVTKDPPHRPHPHELVGKDCRDGYYEADLCPDRSIHSFQNLGIQCVKKRDLEQAISQRIQTNNNPFHVPIEEQRGDYDLNAVRLCFQVTVRDPAGRPLLLTPVLSHPIFDNRAPNTAELKICRVNRNSGSCLGGDEIFLLCDKVQKEDIEVYFTGPGWEARGSFSQADVHRQVAIVFRTPPYADPSLQAPVRVSMQLRRPSDRELSEPMEFQYLPDTDDRHRIEEKRKRTYETFKSIMKKSPFNGPTEPRPPTRRIAVPTRNSTSVPKPAPQPYTFPASLSTINFDEFSPMLLPSGQISNQALALAPSSAPVLAQTMVPSSAMVPLAQPPAPAPVLTPGPPQSLSAPVPKSTQAGEGTLSEALLHLQFDADEDLGALLGNSTDPGVFTDLASVDNSEFQQLLNQGVSMSHSTAEPMLMEYPEAITRLVTGSQRPPDPAPTPLGTSGLPNGLSGDEDFSSIADMDFSALLSQISS |  |  |  | no binding
p52 subunit (other, mouse, UniProt Q9WTK5 1-454, looked up) MDNCYDPGLDGIPEYDDFEFSPSIVEPKDPAPETADGPYLVIVEQPKQRGFRFRYGCEGPSHGGLPGASSEKGRKTYPTVKICNYEGPAKIEVDLVTHSDPPRAHAHSLVGKQCSELGVCAVSVGPKDMTAQFNNLGVLHVTKKNMMEIMIQKLQRQRLRSKPQGLTEAERRELEQEAKELKKVMDLSIVRLRFSAFLRASDGSFSLPLKPVISQPIHDSKSPGASNLKISRMDKTAGSVRGGDEVYLLCDKVQKDDIEVRFYEDDENGWQAFGDFSPTDVHKQYAIVFRTPPYHKMKIERPVTVFLQLKRKRGGDVSDSKQFTYYPLVEDKEEVQRKRRKALPTFSQPFGGGSHMGGGSGGSAGGYGGAGGGGSLGFFSSSLAYNPYQSGAAPMGCYPGGGGGAQMAGSRRDTDAGEGAEEPRTPPEAPQGEPQALDTLQRAREYNARLFGLA |  |  |  | no binding
c-Rel (other, mouse, UniProt P15307 2-587, looked up, Immunoprecipitated with anti-c-Rel (Santa Cruz)) ASSGYNPYVEIIEQPRQRGMRFRYKCEGRSAGSIPGERSTDNNRTYPSVQIMNYYGKGKIRITLVTKNDPYKPHPHDLVGKDCRDGYYEAEFGPERRPLFFQNLGIRCVKKKEVKGAIILRISAGINPFNVGEQQLLDIEDCDLNVVRCVFMFFLPDEDGNFTTALPPIVSNPIYDNRAPNTAELRICRVNKNCGSVRGGDEIFLLCDKVQKDDIEVRFVLNDWEARGVFSQADVHRQVAIVFKTPPYCKAILEPVTVKMQLRRPSDQEVSESMDFRYLPDEKDAYGNKSKKQKTTLIFQKLLQDCGHFTEKPRTAPLGSTGEGRFIKKESNLFSHGTVLPEMPRSSGVPGQAEPYYSSCGSISSGLPHHPPAIPSVAHQPTSWPPVTHPTSHPVSTNTLSTFSAGTLSSNSQGILPFLEGPGVSDLSASNSCLYNPDDLARMETPSMSPTDLYSISDVNMLSTRPLSVMAPSTDGMGDTDNPRLVSINLENPSCNARLGPRDLRQLHQMSPASLSAGTSSSSVFVSQSDAFDRSNFSCVDNGLMNEPGLSDDANNPTFVQSSHYSVNTLQSEQLSDPFTYGFFKI |  |  |  | no binding
